Measurements published in PubChem BioAssay AID977605 (Broad Institute, 2014).
Activity calls are given as the source filed them.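 How the source made its calls: active means fitted curve reaches 40% activation below the top valid tested dose, in every test run; inconclusive means test runs disagree on the call; inactive means the rest, including effects opposite to the expected direction.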

Assay: endothelial E-selectin upregulation by compounds – imaging, HUVEC, cherry-picked samples, dose response (AID 977605);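 further: signal is the share of imaged cells scored positive for E-selectin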
Settings: HUVEC E-selectin immunostaining, at 18 µM (top of the series), percent of TNF-alpha response over vehicle

SMILES	activation
CN1c2ccc(C#Cc3cccnc3)cc2[C@@H]2[C@@H](CCN2C(=O)C2CCC2)[C@H]1CO	-0.065% (inactive)

Same assay, conditions: HUVEC E-selectin immunostaining, at 19.5 µM (top of the series), percent of TNF-alpha response over vehicle

SMILES	activation
OC(COC(c1ccccc1)c1ccccc1)CN1CCOCC1 (centres undefined)	2% (inactive)
Cc1cc(C(=O)Nc2ccc(Cl)cc2)n(-c2ccccc2)n1	0.412% (inactive)
Fc1ccc(NC(=S)N2CCN(c3cccc(C(F)(F)F)c3)CC2)cc1	-0.235% (inactive)
Cc1noc(C)c1NC(=O)N(C)C[C@@H]1Oc2ccc(NS(=O)(=O)c3cccs3)cc2CC(=O)N([C@H](C)CO)C[C@H]1C	-0.165% (inactive)
CS(=O)(=O)N1CCc2cc(S(=O)(=O)NCCNS(=O)(=O)c3ccc4c(c3)CCN4S(C)(=O)=O)ccc21	0.185% (inactive)
CCOC(=O)c1cccc(NC(=O)Nc2ccc3c(c2)C(=O)OC3)c1	0.013% (inactive)
C[C@@H]1CN([C@@H](C)CO)C(=O)Cc2cc(NC(=O)Nc3ccc(F)cc3)ccc2O[C@H]1CN(C)Cc1ccc(C(=O)O)cc1	-0.089% (inactive)
C[C@@H]1CN([C@@H](C)CO)C(=O)Cc2cc(NC(=O)c3ccncc3)ccc2O[C@H]1CN(C)Cc1ccc(Oc2ccccc2)cc1	0.031% (inactive)
COc1ccc(NC(=O)c2cc(S(=O)(=O)N3CCCCC3)c[nH]2)cc1	0.335% (inactive)
COc1ccc(S(=O)(=O)Nc2ccc3c(c2)C(=O)N([C@H](C)CO)C[C@@H](C)[C@@H](CN(C)Cc2ccc(Cl)c(Cl)c2)O3)cc1	-0.147% (inactive)
COc1ccccc1N(CC(=O)NCCSc1ccccn1)S(=O)(=O)c1ccccc1	-0.052% (inactive)
COc1ccccc1N(C(=O)c1snc(C(N)=O)c1N)C(C(=O)NCc1ccccc1)c1ccc(C)o1 (centres undefined)	-0.235% (inactive)
C[C@@H]1CN([C@H](C)CO)C(=O)Cc2cc(NC(=O)c3ccncc3)ccc2O[C@H]1CN(C)S(C)(=O)=O	-0.058% (inactive)
COc1ccc(C2c3[nH]c4ccccc4c3C[C@H]3C(=O)N(CC(C)C)CC(=O)N23)c(OC)c1 (some centres undefined)	0.036% (inactive)
O=C(NC(=S)N1CCN(c2ccc([N+](=O)[O-])cc2)CC1)c1ccccc1	-0.117% (inactive)
Cc1noc(C)c1NC(=O)Nc1ccc2c(c1)CC(=O)N([C@@H](C)CO)C[C@H](C)[C@H](CN(C)Cc1ccc(Oc3ccccc3)cc1)O2	0.075% (inactive)
C[C@H]1CN([C@@H](C)CO)C(=O)c2cccc(NS(C)(=O)=O)c2O[C@@H]1CN(C)Cc1ccncc1	-0.178% (inactive)
C[C@@H]1CN([C@@H](C)CO)C(=O)Cc2cc(NC(=O)Cn3cnnn3)ccc2O[C@H]1CN(C)C(=O)Nc1ccc(F)cc1	0.031% (inactive)
CCc1ccc(N2CC(C(=O)Nc3ccc(F)cc3)CC2=O)cc1 (centres undefined)	0.132% (inactive)
COc1ccc(S(=O)(=O)Nc2ccc3c(c2)C(=O)N([C@H](C)CO)C[C@H](C)[C@@H](CN(C)C(=O)Nc2cccc4ccccc24)O3)cc1	0.023% (inactive)
COC(=O)C[C@H]1CC[C@H]2[C@@H](COc3ccc(NC(=O)C4CC4)cc3C(=O)N2C)O1	3.57% (inactive)
C[C@H](CO)N1C[C@H](C)[C@H](CN(C)Cc2ccc(Oc3ccccc3)cc2)Oc2c(NC(=O)C3CCOCC3)cccc2C1=O	6.04% (inactive)
C[C@@H]1CN([C@@H](C)CO)C(=O)c2cccc(NC(=O)c3ccc(-c4nccs4)cc3)c2O[C@H]1CN(C)Cc1ccc(Oc2ccccc2)cc1	3.4% (inactive)
CCOC(=O)C1CCCN(C(=O)c2cc(S(=O)(=O)N(C)C)ccc2N2CCCC2)C1 (centres undefined)	0.51% (inactive)
CC(C)NC(=O)Nc1ccc2c(c1)CC(=O)N([C@@H](C)CO)C[C@H](C)[C@H](CN(C)Cc1ccc(C(=O)O)cc1)O2	0.025% (inactive)
COc1ccc(S(=O)(=O)N(C)C[C@H]2Oc3ccc(NS(=O)(=O)c4c(C)noc4C)cc3C(=O)N([C@@H](C)CO)C[C@H]2C)cc1	0.307% (inactive)
CN(C)C1(CNC(=O)C2CCN(S(=O)(=O)c3cc(Cl)ccc3Cl)CC2)CCCCC1	-0.207% (inactive)
O=C(CN(CC1CCCO1)C(=O)CNS(=O)(=O)c1ccccc1)NCc1ccc(F)cc1 (centres undefined)	1.46% (inactive)

SMILES	activation
C[C@H](CO)N1C[C@H](C)[C@H](CN(C)C(=O)Nc2ccccc2)Oc2c(NS(=O)(=O)c3cccs3)cccc2C1=O	-0.044% (inactive)
C[C@@H]1CN([C@@H](C)CO)C(=O)Cc2cc(NS(C)(=O)=O)ccc2O[C@@H]1CN(C)S(=O)(=O)c1cn(C)cn1	-0.013% (inactive)
CC(=O)Nc1ccc(CNc2nc(NC(C)C)nc3cc(-c4ccccc4)sc23)cc1	1.22% (inactive)
C[C@@H]1CN([C@@H](C)CO)C(=O)c2cccc(NC(=O)C3CC3)c2O[C@H]1CN(C)Cc1ccccc1	0.172% (inactive)
C[C@H]1CN([C@@H](C)CO)C(=O)Cc2cc(NC(=O)Nc3ccc(F)cc3)ccc2O[C@H]1CN(C)C(=O)Nc1ccc(C(F)(F)F)cc1	0.219% (inactive)
C[C@@H]1CN([C@H](C)CO)C(=O)c2cc(NS(=O)(=O)c3ccc(F)cc3)ccc2O[C@@H](C)CCCCO[C@@H]1CN(C)S(C)(=O)=O	3.44% (inactive)
CN(CC(=O)Nc1ccccc1Br)C(=O)CNC(=O)C1CCCCC1	0.383% (inactive)
COc1ccc(-c2nc(NC(=O)Cn3c(=O)oc4ccccc43)sc2C)cc1	1.37% (inactive)
CCOC(=O)N1CCN=C1SCc1ccc(Cl)c(Cl)c1	5.27% (inactive)
COc1ccc(S(=O)(=O)Nc2ccc3c(c2)CC(=O)N([C@H](C)CO)C[C@@H](C)[C@H](CN(C)C(=O)NC2CCCCC2)O3)cc1	-0.114% (inactive)
CC1=NC(C)(C)Cc2c(C)cccc21	-0.148% (inactive)
CC(C)NC(=O)N(C)C[C@@H]1Oc2ccc(NC(=O)Cn3cnnn3)cc2CC(=O)N([C@@H](C)CO)C[C@H]1C	0.965% (inactive)
CNC(=O)C[C@H]1CC[C@H]2[C@@H](COc3ccc(NC(=O)c4cccc(F)c4)cc3C(=O)N2C)O1	1.5% (inactive)
COc1ccc(NC(=O)Nc2cccc3c2O[C@@H](CN(C)C(=O)NC2CCCCC2)[C@H](C)CN([C@H](C)CO)C3=O)cc1	0.507% (inactive)
C[C@@H]1CN([C@H](C)CO)C(=O)c2cccc(NC(=O)Nc3ccc(F)cc3)c2O[C@H]1CN(C)Cc1ccncc1	-0.015% (inactive)
C[C@H]1CN([C@@H](C)CO)C(=O)c2cc(NC(=O)CCC(F)(F)F)ccc2O[C@@H]1CN(C)Cc1ccc(C(F)(F)F)cc1	0.111% (inactive)
CCN(CC)C(=O)c1cn(-c2cccc(OC)c2)c(=O)c2ccccc12	-0.108% (inactive)
CC(C)(C)c1ccc(NC(=O)N2CCCN(c3ccc([N+](=O)[O-])cn3)CC2)cc1	0.154% (inactive)
CCOc1ccccc1NC(=O)N1CCC(NC(=O)C2CCCCC2)CC1	-0.152% (inactive)
C[C@@H]1CN([C@H](C)CO)C(=O)c2cc(NC(=O)CCC(F)(F)F)ccc2O[C@@H]1CN(C)Cc1ccc(C(F)(F)F)cc1	0.048% (inactive)
C[C@@H]1CN([C@H](C)CO)C(=O)c2cc(N(C)C)ccc2O[C@H]1CN(C)S(=O)(=O)c1cn(C)cn1	-0.007% (inactive)
COc1ccc2[nH]c(=O)c(CN(c3ccccc3)S(=O)(=O)c3ccccc3)cc2c1	3% (inactive)
C[C@H]1CN([C@@H](C)CO)C(=O)c2cccc(NS(C)(=O)=O)c2O[C@@H]1CN(C)Cc1ccc(Oc2ccccc2)cc1	0.027% (inactive)
COc1ncnc(OC)c1S(=O)(=O)NCc1ccccc1	-0.033% (inactive)
Cc1noc(C)c1NC(=O)N(C)C[C@H]1Oc2ccc(NC(=O)c3ccncc3)cc2C(=O)N([C@H](C)CO)C[C@H]1C	0.014% (inactive)
Cc1ccc(S(=O)(=O)N[C@@H](Cc2ccccc2)C(=O)N2CCC(C(=O)N[C@@H](CCC(N)=O)C(=O)O)CC2)cc1	0.009% (inactive)
Cc1ccc(N2C(=O)[C@@H]3C(c4cccnc4)=NO[C@@H]3C2=O)c(C)c1	0.363% (inactive)

Same assay, conditions: HUVEC E-selectin immunostaining, at 21 µM (top of the series), percent of TNF-alpha response over vehicle

SMILES	activation
CCNC(=O)C[C@@H]1CC[C@@H]2[C@@H](COc3ccc(NC(=O)Nc4cccc(OC)c4)cc3C(=O)N2C)O1	0.153% (inactive)
CC(C)NC(=O)Nc1ccc2c(c1)C(=O)N([C@@H](C)CO)C[C@@H](C)[C@H](CN(C)Cc1ccc(C(F)(F)F)cc1)O2	0.029% (inactive)
C[C@@H]1CN([C@H](C)CO)C(=O)c2cccc(NS(=O)(=O)c3cn(C)cn3)c2O[C@H]1CN(C)C(=O)Nc1ccc(F)cc1	6% (inactive)
Cc1noc(C)c1S(=O)(=O)Nc1ccc2c(c1)C(=O)N([C@H](C)CO)C[C@@H](C)[C@H](CN(C)Cc1ccncc1)O2	-0.191% (inactive)
C[C@@H]1CN([C@H](C)CO)C(=O)c2cc(NS(=O)(=O)c3cn(C)cn3)ccc2O[C@H]1CN(C)Cc1ccncc1	-0.069% (inactive)
C[C@H]1CN([C@@H](C)CO)C(=O)c2cc(NC(=O)Nc3ccccc3)ccc2O[C@@H]1CN(C)C(=O)Nc1ccc(C(F)(F)F)cc1	0.08% (inactive)
C[C@H](CO)N1C[C@H](C)[C@@H](CN(C)S(=O)(=O)c2cccs2)Oc2ccc(NC(=O)CCN3CCOCC3)cc2C1=O	-0.167% (inactive)
C[C@H]1CN([C@@H](C)CO)C(=O)c2cccc(NS(=O)(=O)c3cn(C)cn3)c2O[C@@H]1CN(C)C(=O)Nc1ccc(F)cc1	-0.136% (inactive)
C[C@H]1CN([C@@H](C)CO)C(=O)Cc2cc(NS(C)(=O)=O)ccc2O[C@@H]1CN(C)Cc1ccc(Oc2ccccc2)cc1	4.65% (inactive)
C[C@@H]1CN([C@H](C)CO)C(=O)Cc2cc(NC(=O)Nc3ccc(F)cc3)ccc2O[C@@H]1CN(C)Cc1ccncc1	-0.095% (inactive)
C[C@H]1CN([C@@H](C)CO)C(=O)c2cc(NC(=O)Cn3cnnn3)ccc2O[C@@H]1CN(C)Cc1ccc2c(c1)OCO2	-0.073% (inactive)
COc1ccc(S(=O)(=O)N(C)C[C@H]2Oc3ccc(NC(=O)Nc4c(C)noc4C)cc3C(=O)N([C@@H](C)CO)C[C@@H]2C)cc1	2.96% (inactive)
C[C@H]1CN([C@@H](C)CO)C(=O)Cc2cc(NC(=O)CCCCCC(=O)Nc3ccccc3N)ccc2O[C@H]1CN(C)Cc1ccc(Cl)c(Cl)c1	5.06% (inactive)
